Four molecules from US20220202905A1, “COMPOSITION FOR PREVENTING OR TREATING NEUROTROPHIC KERATITIS WHICH CONTAINS PACAP PEPTIDE OR STABILIZED PACAP PEPTIDE” (SENJU PHARMACEUTICAL CO., LTD., priority 2019, published 2022) can be followed below.

A short description of series [1]: Peptide stability test, Tris buffer (pH 7.0), 60° C. storage, HPLC remaining rate. It is filed as physicochemical. The following applies: Table 7; 100 μM in Tris buffer pH 7.0. Summed up: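 Peptides at 100 μM in Tris buffer (pH 7.0) stored 1 or 2 weeks at 60° C.; unstored sample kept at −30° C. as initial reference. Remaining peptide quantified by reversed-phase HPLC at 220 nm (formic acid/acetonitrile gradient, 40° C. column), as water-corrected remaining rate.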

Another series concerns the target T1, PAC1R (Homo sapiens, UniProt P41586).
T1 construct: host or cells: CHO-K1
T1 sequence (P41586 21-468): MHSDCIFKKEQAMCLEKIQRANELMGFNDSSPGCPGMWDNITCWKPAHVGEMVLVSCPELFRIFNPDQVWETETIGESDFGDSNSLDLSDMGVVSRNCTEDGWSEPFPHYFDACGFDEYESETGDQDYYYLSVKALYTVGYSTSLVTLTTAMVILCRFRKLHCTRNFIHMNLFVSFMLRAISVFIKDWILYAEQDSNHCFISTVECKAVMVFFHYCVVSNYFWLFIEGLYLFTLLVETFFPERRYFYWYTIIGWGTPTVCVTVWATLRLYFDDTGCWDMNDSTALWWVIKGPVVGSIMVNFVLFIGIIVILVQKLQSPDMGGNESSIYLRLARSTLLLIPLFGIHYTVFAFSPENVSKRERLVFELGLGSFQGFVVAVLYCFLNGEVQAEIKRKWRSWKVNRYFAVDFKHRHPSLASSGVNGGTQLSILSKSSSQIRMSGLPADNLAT
Nature of the series: cAMP assay in PAC1R high-expressing CHO-K1 cell line. The series is classed as cell-based. The following applies: Table 12; cAMP inducing effect, CHO-K1 PAC1R high-expressing cells. On the procedure:
(§1) The cells were cultured for 18 to 24 hours at 37° C. in a 5% C02 incubator, adhering the cells to the plate. […] A 5-fold dilution series was then prepared with the same Cell assay buffer and used in an assay. The cAMP assay was carried out using a Hit Hunter cAMP Assay for Biologics kit (product of DiscoveRx, Cat. No. 90-0075LM25), according to the included kit instructions. […] Next, the culture medium was removed from the CHO-K1 cell culture plate, washing was performed with PBS, and the peptide-cAMP antibody liquid mixtures were added to the cells and incubated for 30 minutes under a 5% CO2 atmosphere at 37° C. A working detection solution was then added and the culture plate was shielded from light with aluminum foil and incubated at 25° C. for 1 hour. After incubation, Solution A was added and the culture plate was shielded from light with aluminum foil and then incubated at 25° C. for 3 hours. […] The obtained value for the Relative Luminescence Unit (RLU) was analyzed with GraphPad Prism Ver 6.05 (product of Graph Pad) and the EC50 value was calculated for each peptide. […] FIG. 2 and Table 11. […] A 5-fold dilution series was then prepared with the same Cell assay buffer and used in an assay. […] A 5-fold dilution series was then prepared with the same Cell assay buffer and used in an assay.
(cAMP levels reflect the balance of adenylyl cyclase and phosphodiesterase activity.)

The target of the next series is T2, VPAC1R (Homo sapiens, UniProt P32241).
T2 construct: host or cells: CHO-K1
T2 sequence (P32241 31-457): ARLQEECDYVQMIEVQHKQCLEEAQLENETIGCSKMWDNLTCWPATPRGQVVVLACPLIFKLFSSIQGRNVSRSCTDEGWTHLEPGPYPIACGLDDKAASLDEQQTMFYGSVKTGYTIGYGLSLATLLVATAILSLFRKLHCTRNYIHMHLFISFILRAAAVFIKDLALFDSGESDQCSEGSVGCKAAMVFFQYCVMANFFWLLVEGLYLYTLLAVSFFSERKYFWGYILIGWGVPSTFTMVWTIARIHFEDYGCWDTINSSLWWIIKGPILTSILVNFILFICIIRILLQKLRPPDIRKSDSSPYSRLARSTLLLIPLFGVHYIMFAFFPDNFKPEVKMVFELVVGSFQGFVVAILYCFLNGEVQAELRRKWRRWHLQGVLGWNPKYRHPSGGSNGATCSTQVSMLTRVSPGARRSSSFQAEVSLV
The series can be described thus: cAMP assay in VPAC1R high-expressing CHO-K1 cell line. It is filed as cell-based. To be noted: Table 12; cAMP inducing effect, CHO-K1 VPAC1R high-expressing cells. As for the experimental part: as §1

Series [2] can be described thus: Peptide stability test, phosphate buffer (pH 7.0), 40° C. storage, HPLC remaining rate. The series is classed as physicochemical. As for the experimental part:
Peptides 1 and 3 to 5 synthesized in Example 2 were weighed and dissolved in phosphate buffer (pH 7.0) to prepare 1.0 mM peptide solutions. The 1.0 mM peptide solutions were then diluted with phosphate buffer to 100 μM. After filtering with Chromatdisk (product of Merck Millipore, Millex-GV, 0.22 μm), each filtrate was dispensed into an LC vial (Waters Deactivated […] prepared peptide solutions were incubated for one month or 2 months in a 40° C. thermostatic bath to obtain stored samples. A simultaneously prepared sample among the peptide solutions that was not stored was used as a standard sample (initial sample). The standard sample and the stored samples were stored at -30° C. until sample analysis. Using the total weight of the aqueous peptide solution and storage vessel as the specimen weight, measurements were recorded as the specimen weights before storage and the specimen weights after storage under different storage conditions. The empty weight of the storage vessel was also measured, and the moisture permeability was determined by the following formula. After stirring the standard sample and the stored samples with a vortex mixer, each peptide solution was transferred to an HPLC vial (Deactivated Qsert vial by Waters Co.). Reverse-phase HPLC (HPLC system: Prominence by Shimadzu Corp.) was conducted under the conditions shown in Table 3 below for analysis of the peptide solutions, and chromatograms were obtained. Guard column: XSelect CSH C18 by Waters Co., 5 μm, 4.6×20 mm Guard Cartridge Detection wavelength: 220 nm Mobile phase A: 0.1% formic acid aqueous solution Mobile phase B: 0.1% acetonitrile formate solution Measuring time: 30 minutes Measuring sample injection rate: 50 μL Flow rate: 1.0 mL/min Sample cooler: 4° C. Column temperature: 40° C. Mobile phase delivery: The mixing ratio of mobile phase A and mobile phase B was varied as shown in Table 3 for linear concentration gradient control. The peak area value for the peptide in the chromatogram was calculated, and the remaining rate (remaining rate before correction for water) was calculated using formula (2). The remaining rate after correction for water was also calculated from the remaining rate before correction for water using formula (3), taking into account the moisture permeability of the vessel. Peptides 10 and 11 synthesized in Example 2 were weighed and dissolved in phosphate buffer (pH 7.0) to prepare 1.0 mM peptide solutions. Each solution was filtered with a Chromatdisk (product of Merck Millipore. Millex-GV, 0.22 μm). Each filtrate was diluted to 100 μM with phosphate buffer (pH 7.0) and dispensed into a tube (Protein LoBind Tube by Eppendorf Co.). The prepared peptide solutions were incubated for one month or 2 months in a 40° C. thermostatic bath to obtain stored samples. A simultaneously prepared sample among the peptide solutions that was not stored was used as a standard sample (initial sample). The standard sample and the stored samples were stored at -30° C. until sample analysis. The remaining rate after correction for water for each peptide among the stored samples was measured in the same manner as Example 4, and the results are shown in Table 8.

Where [3] appears, read: Table 8, 100 μM in phosphate buffer pH 7.0, measured as in Example 4.

Structures are written as SMILES. Square brackets hold non-standard residues; d marks the D form. Peptide text beside a SMILES is read from it. Ala(1H-tetrazol-5-yl) = N[C@@H](Cc1nnn[nH]1)C(=O)O

Broadly, the EC50 is the concentration at which the effect is half-maximal. Turning to `CC[C@H](C)[C@H](NC(=O)CNC(=O)[C@H](Cc1nnn[nH]1)NC(=O)[C@H](CO)NC(=O)[C@H](Cc1c[nH]cn1)NC(C)=O)C(=O)N[C@@H](Cc1ccccc1)C(=O)N[C@H](C(=O)N[C@@H](Cc1nnn[nH]1)C(=O)N[C@@H](C)C(=O)N[C@@H](Cc1ccc(O)cc1)C(=O)N[C@@H](CO)C(=O)N[C@@H](CCCNC(=N)N)C(=O)N[C@@H](Cc1ccc(O)cc1)C(=O)N[C@@H](CCCNC(=N)N)C(=O)N[C@@H](CCCCN)C(=O)N[C@@H](CCC(N)=O)C(=O)N[C@@H](C)C(=O)N[C@@H](C)C(=O)N[C@H](C(=O)N[C@@H](CCCCN)C(=O)N[C@@H](CCCCN)C(=O)N[C@@H](Cc1ccc(O)cc1)C(=O)N[C@@H](CC(C)C)C(=O)N[C@@H](C)C(=O)N[C@@H](C)C(=O)N[C@H](C(=O)N[C@@H](CC(C)C)C(N)=O)C(C)C)C(C)C)[C@@H](C)O` [Peptide 27] (Ac-HS[Ala(1H-tetrazol-5-yl)]GIFT[Ala(1H-tetrazol-5-yl)]AYSRYRKQAAVKKYLAAVL-NH2), in series [1], the “remaining rate after correction for water, 60° C., 1 week preservation” value was found to be 96.4% and the “remaining rate after correction for water, 60° C., 2 weeks preservation” value amounted to 93.5%. In addition, the concentration giving a half-maximal response (EC50) on PAC1R stood at 60 pM. For the same molecule, the midpoint of the response at VPAC1R, the EC50, lay at 44 pM.
In the case of `CC[C@H](C)[C@H](NC(=O)[C@H](C)NC(=O)[C@H](Cc1nnn[nH]1)NC(=O)[C@H](CO)NC(=O)[C@H](Cc1c[nH]cn1)NC(C)=O)C(=O)N[C@@H](Cc1ccccc1)C(=O)N[C@H](C(=O)N[C@@H](Cc1nnn[nH]1)C(=O)N[C@@H](CO)C(=O)N[C@@H](Cc1ccc(O)cc1)C(=O)N[C@@H](CO)C(=O)N[C@@H](CCCNC(=N)N)C(=O)N[C@@H](Cc1ccc(O)cc1)C(=O)N[C@@H](CCCNC(=N)N)C(=O)N[C@@H](CCCCN)C(=O)N[C@@H](CCC(N)=O)C(=O)N[C@@H](CC(C)C)C(=O)N[C@@H](C)C(=O)N[C@H](C(=O)N[C@@H](CCCCN)C(=O)N[C@@H](CCCCN)C(=O)N[C@@H](Cc1ccc(O)cc1)C(=O)N[C@@H](CC(C)C)C(=O)N[C@@H](C)C(=O)N[C@@H](C)C(=O)N[C@H](C(=O)N[C@@H](CC(C)C)C(N)=O)C(C)C)C(C)C)[C@@H](C)O` [Peptide 23] (Ac-HS[Ala(1H-tetrazol-5-yl)]AIFT[Ala(1H-tetrazol-5-yl)]SYSRYRKQLAVKKYLAAVL-NH2), the “remaining rate after correction for water, 60° C., 1 week preservation” value in series [1] turned out to be 96.5%. In addition, the “remaining rate after correction for water, 60° C., 2 weeks preservation” value in series [1] was determined as 93.1%. Besides, the EC50 on PAC1R turned out to be 79 pM; at VPAC1R, 72 pM.
For `CC[C@H](C)[C@H](NC(=O)CNC(=O)[C@H](Cc1nnn[nH]1)NC(=O)[C@H](CO)NC(=O)[C@H](Cc1c[nH]cn1)NC(C)=O)C(=O)N[C@@H](Cc1ccccc1)C(=O)N[C@H](C(=O)N[C@@H](Cc1nnn[nH]1)C(=O)N[C@@H](CO)C(=O)N[C@@H](Cc1ccc(O)cc1)C(=O)N[C@@H](CO)C(=O)N[C@@H](CCCNC(=N)N)C(=O)N[C@@H](Cc1ccc(O)cc1)C(=O)N[C@@H](CCCNC(=N)N)C(=O)N[C@@H](CCCCN)C(=O)N[C@@H](CCC(N)=O)C(=O)N[C@@H](CCSC)C(=O)N[C@@H](C)C(=O)N[C@H](C(=O)N[C@@H](CCCCN)C(=O)N[C@@H](CCCCN)C(=O)N[C@@H](Cc1ccc(O)cc1)C(=O)N[C@@H](CC(C)C)C(=O)N[C@@H](C)C(=O)N[C@@H](C)C(=O)N[C@H](C(=O)N[C@@H](CC(C)C)C(N)=O)C(C)C)C(C)C)[C@@H](C)O` [Peptide 10] (Ac-HS[Ala(1H-tetrazol-5-yl)]GIFT[Ala(1H-tetrazol-5-yl)]SYSRYRKQMAVKKYLAAVL-NH2), in series [2] (setting [3]), the “remaining rate after correction for water, 40° C., 1 month preservation” value worked out at 94.0% and the “remaining rate after correction for water, 40° C., 2 months preservation” value came out at 86.8%. For the same molecule, the “stability in aqueous solution (in words), 40° C. storage” value in series [2] (phosphate buffer pH 7.0, 1 or 2 months) was “stabilized to the same degree”. The molecule also yielded an EC50 at VPAC1R of 101 pM.
For the molecule `CC[C@H](C)[C@H](NC(=O)CNC(=O)[C@H](Cc1nnn[nH]1)NC(=O)[C@H](CO)NC(=O)[C@@H](N)Cc1c[nH]cn1)C(=O)N[C@@H](Cc1ccccc1)C(=O)N[C@H](C(=O)N[C@@H](CC(=O)O)C(=O)N[C@@H](CO)C(=O)N[C@@H](Cc1ccc(O)cc1)C(=O)N[C@@H](CO)C(=O)N[C@@H](CCCNC(=N)N)C(=O)N[C@@H](Cc1ccc(O)cc1)C(=O)N[C@@H](CCCNC(=N)N)C(=O)N[C@@H](CCCCN)C(=O)N[C@@H](CCC(N)=O)C(=O)N[C@@H](CCSC)C(=O)N[C@@H](C)C(=O)N[C@H](C(=O)N[C@@H](CCCCN)C(=O)N[C@@H](CCCCN)C(=O)N[C@@H](Cc1ccc(O)cc1)C(=O)N[C@@H](CC(C)C)C(=O)N[C@@H](C)C(=O)N[C@@H](C)C(=O)N[C@H](C(=O)N[C@@H](CC(C)C)C(N)=O)C(C)C)C(C)C)[C@@H](C)O` [Peptide 3], the EC50 on PAC1R turned out to be 60 pM; on VPAC1R it was 101 pM.
